# Experimental data published in PubChem BioAssay AID732 (Emory University Molecular Libraries Screening Center, 2007).
# Several values for one entry are separate records, joined by “and”; a condition that tells them apart may be missing. Identical values can stand only once. Activity calls are given as the source filed them. The rule behind the calls is not given here.
# Tested on: in vivo angiogenesis, blood vessel count
# Test: reduction of blood vessel formation in vivo – HTS, in vivo study (AID 732);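 note: zebrafish embryos dosed at one day post fertilization; 0% = reference inhibitor and 100% = plate mean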
# Conditions: active compounds read low;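 tested at 30 µM in the well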
row,Compound,vessel count % control
1,CCN(CC)CCOCCOC(=O)C1(c2ccccc2)CCCC1,108% (inactive)
2,O=C1NC(c2cccc([N+](=O)[O-])c2)=CCN1c1ccccc1O,91.3% (inactive)
3,CCCCCCCCCCCCCCCCCCNC(=O)OCC(COP(=O)([O-])OCC[n+]1ccsc1)OC (stereo not drawn),92% (inactive)
4,NCCC(=O)NCCc1cnc[nH]1,84.2% (inactive)
5,O=C(O)CN(CCOCCOCCN(CC(=O)O)CC(=O)O)CC(=O)O,103% (inactive)
6,COc1ccccc1N1CCN(CCN2C(=O)CC3(CCCC3)CC2=O)CC1,89.5% (inactive)
7,CCCN(CCc1ccccc1)C1CCc2c(O)cccc2C1 (stereo not drawn),88.9% (inactive)
8,CN1C(C)(C)CCCC1(C)C,106% (inactive)
9,CCC1(O)CC2CN(CCc3c([nH]c4ccccc34)[C@@](C(=O)OC)(c3cc4c(cc3OC)N(C)C3[C@]45CCN4CC=C[C@@](CC)([C@@H](OC(C)=O)[C@]3(O)C(=O)OC)[C@H]45)C2)C1 (stereo partly drawn),112% (inactive)
10,N[C@H](C(=O)O)[C@H]1C[C@@H]1C(=O)O,92.9% (inactive)
11,O=C1C(c2c(O)[nH]c3ccc([N+](=O)[O-])cc23)=Nc2ccc(Br)cc21,101% (inactive)
12,C[C@@](Cc1ccc(O)c(O)c1)(NN)C(=O)O,94.6% (inactive)
13,Cc1cccc(C)c1OCC(C)N (stereo not drawn),99.4% (inactive)
14,c1ccc2c(c1)CCCC2C1=NCCN1 (stereo not drawn),76% (inactive)
15,O=c1c(-c2ccc(O)cc2)coc2cc(O)ccc12,105% (inactive)
16,CC(C)C[C@H](NC(=O)[C@H](O)[C@H](N)Cc1ccccc1)C(=O)O,104% (inactive)
17,O=P1(N(CCCl)CCCl)NCCCO1 (stereo not drawn),105% (inactive)
18,Cc1cccc(C#Cc2ccccc2)n1,92.1% (inactive)
19,NC/C=C\C(=O)O,111% (inactive)
20,O=C(CCc1ccc(O)cc1)c1c(O)cc(O)cc1O,124% (inactive)
21,C[C@H](NC(=O)/C(C#N)=C/c1ccc(O)c(O)c1)c1ccccc1,102% (inactive)
22,C=C[C@H]1CN2CCC1C[C@@H]2[C@@H](O)c1ccnc2ccc(OC)cc12 (stereo partly drawn),149% (inactive)
23,CCCN1C[C@H](CSC)C[C@@H]2c3cccc4[nH]cc(c34)C[C@H]21,96.8% (inactive)
24,CN(C)CCCN1c2ccccc2Sc2ccccc21,93.7% (inactive)
25,Oc1ccc2c3c1O[C@H]1c4[nH]c5c(c4C[C@@]4(O)[C@@H](C2)N(CC2CC2)CC[C@]314)C[C@@]1(O)[C@H]2Cc3ccc(O)c4c3[C@@]1(CCN2CC1CC1)[C@H]5O4,81.2% (inactive)

row,Compound,vessel count % control
1,Cc1ccccc1CNc1ncnc2c1ncn2C1OC(CO)C(O)C1O (stereo not drawn),93.1% (inactive)
2,Brc1c(NC2=NCCN2)ccc2nccnc12,104% (inactive)
3,CC(C(=O)O)c1cccc(C(=O)c2ccccc2)c1 (stereo not drawn),122% (inactive)
4,O=C(O)CCC(=O)N1CCCC1C(=O)O (stereo not drawn),109% (inactive)
5,COc1cc(C(O)CN)ccc1O (stereo not drawn),83.3% (inactive)
6,CSc1nc(N)c2ncn([C@@H]3O[C@H](COP(=O)(O)OP(=O)(O)O)[C@H](O)C3O)c2n1 (stereo partly drawn),83.5% (inactive)
7,CC(C)(C)c1ccc(C(O)CCCN2CCC(C(O)(c3ccccc3)c3ccccc3)CC2)cc1 (stereo not drawn),99.8% (inactive)
8,NC(N)=Nc1nc(CSCC/C(N)=N/S(N)(=O)=O)cs1,113% (inactive)
9,NCc1cc(=O)[nH]o1,110% (inactive)
10,NCCCCC(=O)O,84.3% (inactive)
11,COc1ccc2[nH]cc(CCN(C)C)c2c1,83.1% (inactive)
12,O=C(CCCN1CCC(O)(c2cccc(C(F)(F)F)c2)CC1)c1ccc(F)cc1,60.2% (inactive)
13,NC(=O)CI,108% (inactive)
14,O=C(O)CCCCCCCC(=O)O,95.3% (inactive)
15,C[N+]1(CCCCC[N+]2(C)CCCC2)CCCC1,114% (inactive)
16,NC(N)=NCc1cccc(I)c1,98.4% (inactive)
17,CC(C)Cn1c(=O)n(C)c(=O)c2[nH]cnc21,78.7% (inactive)
18,COc1cc(C=C(C#N)C#N)cc(O)c1O,114% (inactive)
19,N[C@@H]1CONC1=O,90.5% (inactive)
20,CN(Cc1cnc2nc(N)nc(N)c2n1)c1ccc(C(=O)N[C@@H](CCC(=O)O)C(=O)O)cc1,112% (inactive)
21,COC(=O)C(C)(N)Cc1ccc(O)cc1 (stereo not drawn),123% (inactive)
22,CC(C)(C)c1cc(C=C(C#N)C#N)cc(C(C)(C)C)c1O,0% (inactive)
23,O=C1NCN(c2ccccc2)C12CCN(CC1COc3ccccc3O1)CC2 (stereo not drawn),94.6% (inactive)
24,COc1ccccc1N1CCN(CCCCNC(=O)c2ccc3ccccc3c2)CC1,52% (inactive)
25,Cn1cnc(CCN)c1,99.8% (inactive)

row,Compound,vessel count % control
1,COC(=O)C1=C(C)NC(C)=C(C(=O)OC)C1c1ccccc1[N+](=O)[O-],112% (inactive)
2,O=C(C1CCCCC1)N1CC(=O)N2CCc3ccccc3C2C1 (stereo not drawn),101% (inactive)
3,CCN(CC)C(=O)c1ccc(O)c(OC)c1,96.8% (inactive)
4,CSc1ccc2c(c1)C(N1CCN(C)CC1)Cc1ccccc1S2 (stereo not drawn),60.6% (inactive)
5,O=Nc1c(-c2c(O)[nH]c3ccccc23)[nH]c2ccc(Br)cc12,67.5% (inactive)
6,O=c1c2ccccc2nc2n1CCc1c-2[nH]c2ccccc12,64.3% (inactive)
7,CNC(=O)[C@H]1O[C@@H](n2cnc3c(NCc4ccc(N)cc4)ncnc32)C(O)[C@H]1O (stereo partly drawn),134% (inactive)
8,N=C(N)c1ccc(OCCCCCOc2ccc(C(=N)N)cc2)cc1 (tested in a mixture with another compound),99.1% (inactive)
9,Cc1nc(N=Nc2ccc(C(=O)O)cc2)c(COP(=O)(O)O)c(C=O)c1O,93.9% (inactive)
10,C[C@@H]1O[C@@H](O[C@H]2C[C@@H](O)[C@]3(CO)[C@H]4[C@H](O)C[C@]5(C)[C@@H](C6=CC(=O)OC6)CC[C@]5(O)[C@@H]4CC[C@]3(O)C2)[C@H](O)[C@H](O)[C@H]1O,109% (inactive)
11,O=C(O)c1cc(=O)c2c(Cl)cc(Cl)cc2[nH]1,113% (inactive)
12,Fc1ccc(CN(C2=NCCN2)c2c(Cl)cccc2Cl)cc1,92.2% (inactive)
13,FC(F)(F)c1ccccc1-n1ccnc1,93.4% (inactive)
14,C=C/C(C)=C/[C@@]1(C)SC(=O)C(C)=C1O,97.7% (inactive)
15,O=c1[nH]c(=O)c2nc3ccccc3nc2[nH]1,129% (inactive)
16,CN(C(=O)Cc1ccc(Cl)c(Cl)c1)C(CN1CCCC1)c1cccc(OCC(=O)O)c1 (stereo not drawn),124% (inactive)
17,OC[C@H]1O[C@@H](n2cnc3c(NC4CCCC4)ncnc32)C(O)[C@H]1O (stereo partly drawn),94.3% (inactive)
18,Clc1ccc(C(c2ccccc2Cl)C(Cl)Cl)cc1 (stereo not drawn),92.7% (inactive)
19,O=c1[nH]c2cc(Cl)ccc2c(O)c1-c1ccc(Oc2ccccc2)cc1,66.8% (inactive)
20,C(=C\c1ccccc1)/CN1CCN(C(c2ccccc2)c2ccccc2)CC1,88.9% (inactive)
21,NC/C=C/C(=O)O,97.5% (inactive)
22,CN[C@H](CC(=O)O)C(=O)O,86.7% (inactive)
23,CC(CCc1ccccc1)NC(C)C(O)c1ccc(O)cc1 (stereo not drawn),98.4% (inactive)
24,CN1CCN(C2Cc3ccccc3Sc3ccc(Cl)cc32)CC1 (stereo not drawn),120% (inactive)
25,CC(=O)Nc1nnc(S(N)(=O)=O)s1,78.2% (inactive)

row,Compound,vessel count % control
1,CC[C@@H]1C(=O)OC[C@@H]1Cc1cncn1C,82.3% (inactive) and 90.8% (inactive)
2,O=C1C(c2c(O)[nH]c3c(Cl)cc(Cl)cc23)=Nc2ccccc21,60.2% (inactive)
3,CCCCCCC(C)(C)c1ccc([C@@H]2C[C@H](O)CC[C@H]2CCCO)c(O)c1,100% (inactive)
4,COC(=O)[C@H]1[C@H]2C[C@@H]3c4[nH]c5cc(OC)ccc5c4CCN3C[C@H]2C[C@@H](OC(=O)c2cc(OC)c(OC)c(OC)c2)[C@@H]1OC,75.8% (inactive)
5,Cc1[nH]c(=O)c(C#N)cc1-c1ccncc1,84.9% (inactive)
6,CCN(CC)C(=O)N[C@@H]1C[C@@H]2c3cccc4[nH]cc(c34)C[C@H]2N(C)C1,111% (inactive)
7,Nc1ccc2c3c(cccc13)C(=O)NC2=O,0% (inactive)
8,c1cnc(N2CCN(Cc3ccc4c(c3)OCO4)CC2)nc1,106% (inactive)
9,N=C1Sc2ccccc2C2=NCCCN12,104% (inactive)
10,CC(C)(C)c1o[nH]c(=O)c1CC(N)C(=O)O (stereo not drawn),106% (inactive)
11,CCCCCN(CCCCC)C(=O)C(CCC(=O)O)NC(=O)c1ccc(Cl)c(Cl)c1 (stereo not drawn),81.3% (inactive)
12,C[C@@H](CN1CCC(Cc2ccccc2)CC1)[C@@H](O)c1ccc(O)cc1,112% (inactive)
13,O=C(NCCNCC(O)COc1ccc(O)cc1)N1CCOCC1 (stereo not drawn),89.9% (inactive)
14,C=CCN1CCc2c(cc(O)c(O)c2Cl)C(c2ccccc2)C1 (stereo not drawn),121% (inactive)
15,C[n+]1cc2c3c(ccc2c2ccc4cc5c(cc4c21)OCO5)OCO3,0% (inactive)
16,Oc1cc2c(c(Cl)c1O)CCNCC2c1ccccc1 (stereo not drawn),111% (inactive)
17,CCn1cc(C(=O)O)c(=O)c2ccc(Cc3ccccc3)nc21,108% (inactive)
18,CN1CCCC1CCOC(C)(c1ccccc1)c1ccc(Cl)cc1 (stereo not drawn),67.5% (inactive)
19,C#CCN[C@H](C)Cc1ccccc1,114% (inactive)
20,CCN(CC)CCOC(=O)c1ccc(N)cc1,112% (inactive)
21,CCCCC/C=C\CC(O)/C=C/c1cccc(CC(O)CCCCO)n1 (stereo not drawn),100% (inactive)
22,CC(=O)[C@H]1CC[C@H]2[C@@H]3CC[C@H]4C[C@H](O)CC[C@]4(C)[C@H]3C(=O)C[C@]12C,111% (inactive)
23,CC(=O)Oc1ccccc1C(=O)O,105% (inactive)
